Test results: PubChem BioAssay AID1194 (EPA DSSTox, 2008)
Active and inactive are the calls of the source.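 Rule for the calls: active = chemicals rated mutagenic or weakly mutagenic in the Salmonella bacterial test by one literature review, or positive overall by another; inconclusive = no clear call, values can overlap the other calls; inactive = the rest.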

System: Salmonella typhimurium Ames mutagenicity, literature compiled
Assay: DSSTox (CPDBAS) Carcinogenic Potency Database Salmonella Mutagenicity
Description: The Carcinogenic Potency Database (CPDB) is a unique and widely used international resource of the results of over 6500 chronic, long-term animal cancer tests on over 1500 chemical substances. The CPDB provides easy access to the bioassay literature, with qualitative and quantitative analyses of both positive and negative experiments that have been published over the past 50 years in the general literature and by the National Cancer Institute/National Toxicology Program. The CPDB standardizes the diverse literature of cancer bioassays that vary widely in protocol, histopathological examination and nomenclature, and in the published author's choices of what information to provide in their papers. Results are reported in the CPDB for tests in rats, mice, hamsters, dogs, and nonhuman primates, and are based on the most positive result among all experiments for each sex-species. The DSSTox CPDBAS (all species) file incorporates data from the CPDB Summary Tables for the full list of over 1500 chemical substances tested in at least one species.
A chemical is classified within the CPDB as mutagenic, i.e. "active", in the Salmonella assay if it was evaluated overall as either "mutagenic" or "weakly mutagenic" by Zeiger [Zeiger, E. (1997) Genotoxicity Database. In: Gold and Zeiger, Eds. Handbook of Carcinogenic Potency and Genotoxicity Databases. Boca Raton, FL: CRC Press, pp. 687-729. http://potency.berkeley.edu/CRCbook.html] or as overall "positive" by the EPA Gene-Tox Program [Kier et al. (1986) Mutat. Res. 168: 69-240].

Row | Compound | outcome
1 | S=P(N1CC1)(N1CC1)N1CC1 | active; inactive
2 | O=C(O)CC[N+](=O)[O-] | active; inactive
3 | CCn1cc(C(=O)O)c(=O)c2ccc(C)nc21 | inactive
4 | Nc1ccc(N)c2c1C(=O)c1c(N)ccc(N)c1C2=O | active
5 | N[C@@H](CCC(=O)O)C(=O)O | inactive; active
6 | Clc1ccc(C(c2ccc(Cl)cc2)C(Cl)Cl)cc1 | inactive
7 | CCO | inactive; active
8 | Cc1cc(O)c2c(c1O)C(=O)C13C(=C2O)C(=O)C2C(O)C1C1C(O)C3C(=O)C3=C(O)c4c(O)cc(C)c(O)c4C(=O)C321 (centres undefined) | inactive; active
9 | ClC(Cl)=C(c1ccc(Cl)cc1)c1ccc(Cl)cc1 | inactive; active
10 | Nc1c(Cl)cc(Cl)cc1Cl | inactive; active
11 | OC[C@@H](O)[C@@H](O)[C@H](O)[C@H](O)CO | inactive; active
12 | CCC1(c2ccccc2)C(=O)NC(=O)NC1=O | active
13 | CCCCCCc1ccc(O)cc1O | inactive; active
14 | CCBr | active
15 | CN(N=O)C(=O)N[C@@H]1[C@@H](O)[C@H](O)[C@@H](CO)O[C@@H]1O | active
16 | C=CCOCC1CO1 (centres undefined) | active
17 | O=[N+]([O-])c1ccc(NCCO)c(OCCO)c1 | active
18 | CC1CN(N=O)CC(C)N1C(=O)c1ccccc1 (centres undefined) | inactive
19 | Cc1cc(O)c(C(C)(C)C)cc1Sc1cc(C(C)(C)C)c(O)cc1C | inactive; active
20 | S=C([S-])NCCNC(=S)[S-].[Zn+2] | inactive; active
21 | C=CC(O)c1ccc2c(c1)OCO2 (centres undefined) | inactive
22 | Nc1ncc([N+](=O)[O-])s1 | active
23 | c1ccc2[nH]c(-c3cscn3)nc2c1 | active
24 | C=CF | active; inactive

Row | Compound | outcome
25 | CC[C@H]1CN2CCc3cc(OC)c(OC)cc3[C@@H]2C[C@@H]1C[C@H]1NCCc2cc(OC)c(OC)cc21 | inactive; active
26 | CC(Cl)(Cl)Cl | active
27 | c1ccc(N=Nc2ccccc2)cc1 | active
28 | CCOc1ccccc1C(N)=O | inactive; active
29 | O=C1C=CC(=O)C=C1 | inactive; active
30 | CCCN(N=O)C(=N)N[N+](=O)[O-] | active; inactive
31 | CCOc1ccc(NC(C)=O)cc1 | active; inactive
32 | O=[N+]([O-])c1ccc(-c2nc(NCCO)c3ccccc3n2)s1 | active
33 | C[N+](=O)[O-] | inactive; active
34 | O=C(O)c1ccccc1-c1c2cc(I)c(=O)c(I)c-2oc2c(I)c(O)c(I)cc12 | inactive
35 | O=C(O)c1ccc([N+](=O)[O-])cc1 | active
36 | CN(N=O)C(N)=O | active
37 | O=S(=O)(O)c1ccc2c(N=Nc3ccc(S(=O)(=O)O)c4ccccc34)c(O)c(S(=O)(=O)O)cc2c1 | inactive
38 | CN(C)c1ccccc1 | inactive
39 | CN(C)c1ccc(N=NS(=O)(=O)O)cc1 | active; inactive
40 | CCCC[C@H](C)[C@@H](OC(=O)C[C@H](CC(=O)O)C(=O)O)[C@@H](C[C@H](C)C[C@@H](O)CCCC[C@@H](O)C[C@H](O)[C@H](C)N)OC(=O)C[C@H](CC(=O)O)C(=O)O | inactive
41 | COCCl | inactive; active
42 | O=C1C(c2[nH]c3ccc(S(=O)(=O)O)cc3c2O)=Nc2ccc(S(=O)(=O)O)cc21 | inactive
43 | CC(=O)OC[C@]12C[C@H](OC(=O)CC(C)C)C(C)=C[C@H]1O[C@@H]1[C@H](O)[C@@H](OC(C)=O)[C@@]2(C)C12CO2 (some centres undefined) | inactive
44 | O=C1O[C@H]([C@@H](O)CO)C(O)=C1O | inactive
45 | CC(=O)Nc1ccc2c(c1)Cc1cc(NC(C)=O)ccc1-2 | active
46 | NC(=O)CCCCC(N)=O | inactive
47 | ClC1=C(Cl)[C@]2(Cl)[C@@H]3[C@@H]4C[C@@H]([C@H]5O[C@@H]45)[C@@H]3[C@@]1(Cl)C2(Cl)Cl | inactive; active
48 | CC[C@H]1OC(=O)[C@H](C)[C@@H](O[C@H]2C[C@@](C)(OC)[C@@H](O)[C@H](C)O2)[C@H](C)[C@@H](O[C@@H]2O[C@H](C)C[C@H](N(C)C)[C@H]2O)[C@](C)(O)C[C@@H](C)C(=O)[C@H](C)[C@@H](O)[C@]1(C)O | inactive

Row | Compound | outcome
49 | CNNC | active
50 | O=C(O)CCCc1ccc(N(CCCl)CCCl)cc1 | active; inactive
51 | O.O.O.O.O.O.O.O=S(=O)([O-])[O-].[Co+2] | active
52 | C=CCc1ccc(OC)cc1 | inactive; active
53 | [N-]=[N+]=CC(=O)OC[C@H](N)C(=O)O | active
54 | ClC(Cl)Br | active
55 | Cc1cc(C)nc(NS(=O)(=O)c2ccc(N)cc2)n1 | inactive
56 | ClC1=C(Cl)[C@]2(Cl)[C@@H]3[C@H]4C=CC(C4)[C@@H]3C1(Cl)C2(Cl)Cl | inactive; active
57 | c1ccc2occc2c1 | inactive; active
58 | O=NN1CCSCC1 | active; inactive
59 | CN(C)C(=S)SSC(=S)N(C)C | active
60 | N[C@@H](Cc1ccc(N(CCCl)CCCl)cc1)C(=O)O | active; inactive
61 | FC(Cl)(Cl)Cl | inactive; active
62 | O=C1c2ccccc2-c2ccc3c4c(ccc1c24)-c1ccccc1C3=O | inactive; active
63 | O=NO | active
64 | O=S(=O)(O)c1cc(S(=O)(=O)O)c2c(N=Nc3ccccc3)c(O)ccc2c1 | inactive; active
65 | Nc1cc([N+](=O)[O-])ccc1C(=O)O | active
66 | NCC(=O)O | inactive
67 | C=CC(OC(C)=O)c1ccc2c(c1)OCO2 (centres undefined) | active
68 | O=NN1CCN(N=O)CC1 | active; inactive
69 | Nc1ccc2cc3ccc(N)cc3nc2c1 | active
70 | C[N+](C)(C)CCCl | inactive; active
71 | CCCCC(CC)COC(=O)COc1ccc(Cl)cc1Cl (centres undefined) | inactive
72 | CN(N=O)c1ccccn1 | active; inactive

Row | Compound | outcome
73 | Cn1cc[nH]c1=S | inactive; active
74 | Cc1cc(Cl)ccc1N | inactive; active
75 | O=c1ccc(=O)[nH][nH]1 | inactive; active
76 | Clc1cc2c(cc1Cl)Oc1cc(Cl)c(Cl)cc1O2 | inactive; active
77 | c1cc(OCC2CO2)cc(OCC2CO2)c1 (centres undefined) | active
78 | OCCOCCOCCO | active; inactive
79 | C[C@H]1CCCC(=O)CCC/C=C/c2cc(O)cc(O)c2C(=O)O1 | inactive; active
80 | O=C(O)C1[O][Sb]2[O]C(=O)C([O]2)C(C(=O)O)[O][Sb]2[O]C(=O)C1[O]2 (centres undefined) | inactive
81 | Clc1ccc(Cl)cc1 | inactive
82 | Nc1c(Cl)cc([N+](=O)[O-])cc1Cl | active
83 | CCOP(=S)(OCC)SC1OCCOC1SP(=S)(OCC)OCC (centres undefined) | active; inactive
84 | C#C[C@]1(O)CC[C@H]2[C@@H]3CCc4cc(OC)ccc4[C@H]3CC[C@@]21C | inactive
85 | ClCCOCCCl | active
86 | NCCc1ccc(O)c(O)c1 | active
87 | NC(=O)c1ccccc1C(N)=O | inactive
88 | N/C(=N\O)c1ccc([N+](=O)[O-])o1 | active
89 | C=CC | active; inactive
90 | CC1=CC(=O)CC(C)(C)C1 | inactive; active
91 | O=P(O)(O)O | active; inactive
92 | CCC(Br)(CC)C(=O)NC(N)=O | inactive
93 | NC1CCCCC1 | inactive; active
94 | O=C1CCCCCN1 | inactive; active
95 | CN(C)C=O | inactive
96 | Oc1ccccc1O | inactive; active

Row | Compound | outcome
97 | CC(O)c1ccccc1 (centres undefined) | inactive; active
98 | C=CCCl | active; inactive
99 | CCOC(=O)N(C)N=O | active
100 | O=NN(CCCl)C(=O)N[C@@H]1[C@@H](O)[C@H](O)[C@@H](CO)O[C@@H]1O | active; inactive
101 | [Cl-].[Cl-].[Sn+2] | inactive
102 | Nc1cccc2c(N)cccc12 | active
103 | Nc1ccc(NCCO)c([N+](=O)[O-])c1 | active
104 | c1ccc(NNc2ccccc2)cc1 | active
105 | Nc1nc(N)c2nc(-c3ccccc3)c(N)nc2n1 | inactive; active
106 | Nc1ccc([N+](=O)[O-])cc1N | active
107 | CCN(N=O)C(N)=O | active; inactive
108 | CN(C)CNc1nnc(/C=C/c2ccc([N+](=O)[O-])o2)o1 | active
109 | O=NN1CCCCCC1 | active
110 | C=CCO | inactive
111 | CC1=C(/C=C/C(C)=C/C=C/C(C)=C/C=C/C=C(C)/C=C/C=C(C)/C=C/C2=C(C)CCCC2(C)C)C(C)(C)CCC1 | active; inactive
112 | ClCC1CO1 (centres undefined) | active; inactive
113 | OC(O)C(Cl)(Cl)Cl | active
114 | COP(=O)(OC)OC=C(Cl)Cl | active; inactive
115 | Clc1ccccc1Cl | inactive
116 | Brc1c(Br)c(Br)c(Oc2c(Br)c(Br)c(Br)c(Br)c2Br)c(Br)c1Br | inactive; active
117 | COc1ccc(C(c2ccc(OC)cc2)C(Cl)(Cl)Cl)cc1 | inactive; active
118 | Cc1ccc(N)cc1Cl | inactive; active
119 | Nc1ccc2ccccc2c1 | active; inactive
